We go through 24 compounds from patent publication US20040106626A1, “6-Membered unsaturated heterocyclic compounds useful for selective inhibition of the coagulation cascade” (Pharmacia Corporation, priority 2001, published 2004).

Type in all cases: biochemical
Assay [1] deals with Normal human pooled plasma. Put plainly: Prothrombin time (PT) clotting assay. The conditions noted are these: concentration at which prothrombin time is prolonged by 2x normal, reported as less than or greater than 50 uM. How it is done:
The prothrombin time (PT) assay is a clotting assay that is used to determine deficiencies of clotting factor activity in the extrinsic pathway. The assay measures time to clotting after the addition of thromboplastin (human tissue factor). Normal human pooled plasma is incubated with 100 uM compound or saline in a coagulation machine. Thromboplastin is added and time to clotting is measured. Compounds with greater than 3×normal PT of 11.0 seconds are further analyzed by concentration response to determine at what concentration the prothrombin time is prolonged by 2×normal.

The target in another assay is T1, Human thrombin (Homo sapiens, UniProt P00734).
T1 construct: converts prothrombin (II) to thrombin (IIa); purchased Calbiochem, La Jolla, Calif
Put plainly: Thrombin assay (chromogenic substrate). The conditions noted are these: reported only as less than or greater than 30 uM; read-out: Thrombin (II) IC50. The gist of the method:
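Percent inhibition derived by comparing OD405 nm of compound-treated and control samples. Thrombin cleavage of a p-nitroanilide chromogenic substrate provides the signal.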

The next assay addresses T2, Human factor Xa (Homo sapiens, UniProt P00742).
T2 construct: purchased Enzyme Research Laboratories, South Bend Ind
As to the kind of experiment: Xa assay (chromogenic substrate S-2765). Particulars: reported only as less than or greater than 30 uM; read-out: Factor Xa (II) IC50. A digest of the protocol:
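Chromogenic readout: S-2765 hydrolysis (0.15 mM) by 0.3 nM human FXa was monitored at 405 nm after 60 min at room temperature, with a time-zero background read. Buffer: 50 mM Tris-HCl, pH 8.0, 100 mM NaCl, 0.1% BSA. Inhibition is relative to buffer-only controls.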

Assay [2] deals with T3, recombinant soluble tissue factor and recombinant human factor VIIa (TF-VIIa) (Homo sapiens, UniProt P08709).
T3 construct: conversion of coagulation factor VII to VIIa by factor Xa; purchased American Diagnostica, Greenwich CT; host or cells: soluble TF made in house in E. coli
Put plainly: TF-VIIa assay (chromogenic substrate hydrolysis). The conditions noted are these: reported only as less than or greater than 0.1 uM. A digest of the protocol: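 Chromogenic read at OD405, compared with control for percent inhibition. Substrate N-methylsulfonyl-D-phe-gly-arg-p-nitroaniline at 0.4 mM is cleaved by recombinant human VIIa (2 nM) complexed with soluble TF (100 nM). Buffer: pH 8.0 Tris-HCl 50 mM, CaCl2 5 mM, NaCl 100 mM, BSA 0.1%.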

T3 sequence (P08709 213-466 limits assumed): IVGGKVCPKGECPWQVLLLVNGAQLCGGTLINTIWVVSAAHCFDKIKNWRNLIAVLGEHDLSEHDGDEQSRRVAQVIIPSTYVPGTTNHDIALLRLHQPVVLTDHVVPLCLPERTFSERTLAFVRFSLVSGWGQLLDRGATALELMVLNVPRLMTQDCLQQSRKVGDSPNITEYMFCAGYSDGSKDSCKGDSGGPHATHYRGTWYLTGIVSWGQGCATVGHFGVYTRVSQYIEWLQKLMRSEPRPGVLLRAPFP
T3 sequence (P08709 61-212 limits assumed): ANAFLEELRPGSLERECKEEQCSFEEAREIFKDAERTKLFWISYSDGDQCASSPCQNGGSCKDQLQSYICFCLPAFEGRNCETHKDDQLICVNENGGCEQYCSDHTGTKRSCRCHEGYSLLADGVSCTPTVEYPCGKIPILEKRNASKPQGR
T3 sequence (P13726 33-251 partner limits assumed): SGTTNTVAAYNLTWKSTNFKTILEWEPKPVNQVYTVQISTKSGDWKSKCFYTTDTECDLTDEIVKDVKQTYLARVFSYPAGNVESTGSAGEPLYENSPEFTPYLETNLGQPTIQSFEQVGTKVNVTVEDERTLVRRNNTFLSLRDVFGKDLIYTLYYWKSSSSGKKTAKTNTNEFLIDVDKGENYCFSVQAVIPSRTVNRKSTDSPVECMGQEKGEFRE
T2 sequence (P00742 235-488 limits assumed): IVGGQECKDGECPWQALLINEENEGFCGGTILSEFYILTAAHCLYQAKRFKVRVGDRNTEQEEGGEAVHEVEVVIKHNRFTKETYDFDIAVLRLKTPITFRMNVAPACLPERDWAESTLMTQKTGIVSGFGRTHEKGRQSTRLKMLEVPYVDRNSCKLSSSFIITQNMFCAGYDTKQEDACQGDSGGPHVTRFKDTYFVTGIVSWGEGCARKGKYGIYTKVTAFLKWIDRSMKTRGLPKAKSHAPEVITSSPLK
T2 sequence (P00742 41-179 limits assumed): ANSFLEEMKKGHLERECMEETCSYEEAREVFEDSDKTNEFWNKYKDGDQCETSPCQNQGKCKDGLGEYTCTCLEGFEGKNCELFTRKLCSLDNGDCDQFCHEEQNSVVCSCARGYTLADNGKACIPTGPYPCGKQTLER

One may read the IC50 as the point on the concentration scale where inhibition reaches its midpoint. Turning to `CC(C)Nc1ncc(-c2cc(N)cc(C(=O)NCc3ccccc3)c2)n(CC(=O)NCc2ccc(C(=N)N)cc2)c1=O.O=C(O)C(F)(F)F.O=C(O)C(F)(F)F` [Example 24], the “PT (Prothrombin time) 2xPT” value in assay [1] was under 50.0 µM. The IC50 was over 30 µM on Human thrombin, over 30 µM at Human factor Xa and under 0.1 µM in assay [2].

In the case of `CC(C)Nc1ncc(-c2cc(N)cc(C(=O)N(C)Cc3ccccc3)c2)n(CC(=O)NCc2ccc(C(=N)N)cc2)c1=O.O=C(O)C(F)(F)F.O=C(O)C(F)(F)F` [Example 28], the “PT (Prothrombin time) 2xPT” value in assay [1] is under 50.0 µM. Besides, the IC50 at Human thrombin is over 30 µM; on Human factor Xa, over 30 µM; in assay [2], under 0.1 µM.

Regarding `CNc1ncc(-c2cc(N)cc(N)c2)n(CC(=O)NCc2ccc(C(=N)N)cc2)c1=O` [Example 35], the “PT (Prothrombin time) 2xPT” value in assay [1] was under 50.0 µM. Besides, the IC50 is over 30 µM at Human thrombin, over 30 µM on Human factor Xa and under 0.1 µM in assay [2].

As for `CC(C)Nc1ncc(-c2cc(N)cc(C(F)(F)F)c2)n(CC(=O)NCc2ccc(C(=N)N)c(O)c2)c1=O` [Example 49], in assay [1], the “PT (Prothrombin time) 2xPT” value is under 50.0 µM. Besides, the IC50 was over 30 µM at Human thrombin, over 30 µM on Human factor Xa and over 0.1 µM in assay [2].

Turning to `CC(C)Nc1ncc(-c2cc(N)cc(NC(=O)C(C)C)c2)n(CC(=O)NCc2ccc(C(=N)N)cc2)c1=O` [Example 50, N-{3-amino-5-[1-[2-({4-[amino(imino)methyl]benzyl}amino)-2-oxoethyl]-5-(isopropylamino)-6-oxo-1,6-dihydropyrazin-2-yl]phenyl}-2-methylpropanamide], the “PT (Prothrombin time) 2xPT” value in assay [1] was under 50.0 µM. Moreover, the IC50 is under 30 µM on Human thrombin, over 30 µM on Human factor Xa and under 0.1 µM in assay [2].

Consider `CC(C)Nc1ncc(-c2cc(N)cc(C(F)(F)F)c2)n(CC(=O)NCc2ccc(C(=N)N)c(F)c2F)c1=O` [Example 51], for which the “PT (Prothrombin time) 2xPT” value in assay [1] is under 50.0 µM. Further, the IC50 was over 30 µM on Human thrombin, over 30 µM at Human factor Xa and over 0.1 µM in assay [2].

On to `COc1cc(N)cc(-c2cnc(NC(C)C)c(=O)n2CC(=O)NCc2ccc(C(=N)N)cc2)c1` [Example 53, N-{4-[Amino(imino)methyl]benzyl}-2-[6-(3-amino-5-methoxyphenyl)-3-(isopropylamino)-2-oxopyrazin-1 (2H)-yl]acetamide], for which, in assay [1], the “PT (Prothrombin time) 2xPT” value was under 50.0 µM. Moreover, the values for the IC50 (at Human thrombin; on Human factor Xa; in assay [2]) were over 30 µM, over 30 µM and under 0.1 µM, respectively.

On to `CC(C)Nc1ncc(-c2cc(N)cc(O)c2)n(CC(=O)NCc2ccc(C(=N)N)cc2)c1=O` [Example 54], for which the “PT (Prothrombin time) 2xPT” value in assay [1] is under 50.0 µM. The figures for the IC50 (on Human thrombin; on Human factor Xa; in assay [2]) were over 30 µM, over 30 µM and under 0.1 µM, respectively.

With `CC(C)Nc1ncc(-c2cc(N)cc(C(=O)N[C@@H](C)c3ccccc3)c2)n(CC(=O)NCc2ccc(C(=N)N)cc2)c1=O` [Example 57], the “PT (Prothrombin time) 2xPT” value in assay [1] is under 50.0 µM. The IC50 on Human thrombin was under 30 µM; on Human factor Xa, over 30 µM; in assay [2], under 0.1 µM.

With `CC(C)Nc1ncc(-c2cc(N)cc(C(=O)N[C@H](C)c3ccccc3)c2)n(CC(=O)NCc2ccc(C(=N)N)cc2)c1=O` [Example 58], the “PT (Prothrombin time) 2xPT” value in assay [1] is under 50.0 µM. Moreover, the IC50 at Human thrombin was under 30 µM; on Human factor Xa, over 30 µM; in assay [2] it was under 0.1 µM.

Consider `CC(C)Nc1ncc(-c2cc(N)cc(C(=O)NCc3cc(C(F)(F)F)cc(C(F)(F)F)c3)c2)n(CC(=O)NCc2ccc(C(=N)N)cc2)c1=O` [Example 59], for which, in assay [1], the “PT (Prothrombin time) 2xPT” value is over 50.0 µM. Further, the IC50 at Human thrombin is over 30 µM; on Human factor Xa, over 30 µM; in assay [2], over 0.1 µM.

For `CC(C)Nc1ncc(-c2cc(N)cc(C(=O)NCc3cccnc3)c2)n(CC(=O)NCc2ccc(C(=N)N)cc2)c1=O` [Example 61], the “PT (Prothrombin time) 2xPT” value in assay [1] was under 50.0 µM. Moreover, the IC50 at Human thrombin is over 30 µM; at Human factor Xa it was over 30 µM; in assay [2], under 0.1 µM.

Consider `CC(C)Nc1ncc(-c2cc(N)cc(C(=O)NCCCc3ccccc3)c2)n(CC(=O)NCc2ccc(C(=N)N)cc2)c1=O` [Example 62], for which the “PT (Prothrombin time) 2xPT” value in assay [1] was under 50.0 µM. For the same compound, the IC50 on Human thrombin is under 30 µM; at Human factor Xa it was over 30 µM; in assay [2], under 0.1 µM.

As for `CCNC(=O)c1cc(N)cc(-c2cnc(NC(C)C)c(=O)n2CC(=O)NCc2ccc(C(=N)N)cc2)c1` [Example 63], the “PT (Prothrombin time) 2xPT” value in assay [1] was under 50.0 µM. Also, the IC50 is over 30 µM on Human thrombin, over 30 µM on Human factor Xa and under 0.1 µM in assay [2].

In the case of `CC(C)COc1cc(N)cc(-c2cnc(NC(C)C)c(=O)n2CC(=O)NCc2ccc(C(=N)N)cc2)c1` [Example 64, N-{4-[amino(imino)methyl]benzyl}-2-[6-(3-amino-5-isobutoxyphenyl)-3-(isopropylamino)-2-oxopyrazin-1 (2H)-yl]acetamide], the “PT (Prothrombin time) 2xPT” value in assay [1] was under 50.0 µM. The IC50 at Human thrombin was over 30 µM; on Human factor Xa it was over 30 µM; in assay [2], under 0.1 µM.

On to `CC(C)Nc1ncc(-c2cc(N)cc(C(F)(F)F)c2)n(CC(=O)NCc2c(F)c(O)c(C(=N)N)c(F)c2F)c1=O` [Example 65], for which the “PT (Prothrombin time) 2xPT” value in assay [1] is over 50.0 µM. Also, the IC50 at Human thrombin was over 30 µM; on Human factor Xa, over 30 µM; in assay [2], over 0.1 µM.

Turning to `CC(C)Nc1ncc(-c2cc(N)cc(S(=O)(=O)O)c2)n(CC(=O)NCc2ccc(C(=N)N)cc2)c1=O` [Example 66, 3-Amino-5-[1-[2-({4-[amino(imino)methyl]benzyl}amino)-2-oxoethyl]-5-(isopropylamino)-6-oxo-1,6-dihydropyrazin-2-yl]benzenesulfonic Acid], in assay [1], the “PT (Prothrombin time) 2xPT” value was under 50.0 µM. Besides, the values for the IC50 (on Human thrombin; at Human factor Xa; in assay [2]) were over 30 µM, over 30 µM and under 0.1 µM, respectively.

`CC(C)Nc1ncc(-c2cc(N)cc(C(F)(F)F)c2)n(CC(=O)NCc2ccc(C(=N)N)s2)c1=O` [Example 67]: the “PT (Prothrombin time) 2xPT” value in assay [1] is under 50.0 µM. Moreover, the IC50 at Human thrombin is over 30 µM; at Human factor Xa it was under 30 µM; in assay [2], under 0.1 µM.

On to `CC(C)Nc1ncc(-c2cc(N)cc(N)c2)n(CC(=O)NCc2ccc(C(=N)N)s2)c1=O` [Example 68], for which the “PT (Prothrombin time) 2xPT” value in assay [1] was under 50.0 µM. Besides, the IC50 at Human thrombin is over 30 µM; on Human factor Xa, under 30 µM; in assay [2] it was under 0.1 µM.

Turning to `CC(C)CSc1cc(N)cc(-c2cnc(NC(C)C)c(=O)n2CC(=O)NCc2ccc(C(=N)N)cc2)c1` [Example 70, N-{4-[amino(imino)methyl]benzyl}-2-[6-[3-amino-5-(isobutylthio)phenyl]-3-(isopropylamino)-2-oxopyrazin-1 (2H)-yl]acetamide], in assay [1], the “PT (Prothrombin time) 2xPT” value was under 50.0 µM. For the same compound, the IC50 was over 30 µM on Human thrombin, over 30 µM at Human factor Xa and under 0.1 µM in assay [2].

As to `CC[C@@H](C)NC(=O)c1cc(N)cc(-c2cnc(NC(C)C)c(=O)n2CC(=O)NCc2ccc(C(=N)N)cc2)c1` [Example 72], the “PT (Prothrombin time) 2xPT” value in assay [1] is under 50.0 µM. The IC50 on Human thrombin is under 30 µM; on Human factor Xa, over 30 µM; in assay [2] it was under 0.1 µM.

With `CC(C)C[S+]([O-])c1cc(N)cc(-c2cnc(NC(C)C)c(=O)n2CC(=O)NCc2ccc(C(=N)N)cc2)c1` (stereo not drawn) [Example 73, N-{4-[amino(imino)methyl]benzyl}-2-[6-[3-amino-5-(isobutylsulfinyl)phenyl]-3-(isopropylamino)-2-oxopyrazin-1 (2H)-yl]acetamide], in assay [1], the “PT (Prothrombin time) 2xPT” value is under 50.0 µM. In addition, the IC50 is over 30 µM at Human thrombin, over 30 µM on Human factor Xa and under 0.1 µM in assay [2].

With `CC(C)CS(=O)(=O)c1cc(N)cc(-c2cnc(NC(C)C)c(=O)n2CC(=O)NCc2ccc(C(=N)N)cc2)c1` [Example 74, N-{4-[amino(imino)methyl]benzyl}-2-[6-[3-amino-5-(isobutylsulfonyl)phenyl]-3-(isopropylamino)-2-oxopyrazin-1 (2H)-yl]acetamide], the “PT (Prothrombin time) 2xPT” value in assay [1] is under 50.0 µM. For the same compound, the IC50 on Human thrombin is over 30 µM; at Human factor Xa it was over 30 µM; in assay [2] it was under 0.1 µM.

With `CC(C)Nc1ncc(-c2cc(N)cc(CCCc3ccccc3)c2)n(CC(=O)NCc2ccc(C(=N)N)cc2)c1=O` [Example 76, N-{4-[amino(imino)methyl]benzyl}-2-[6-[3-amino-5-(3-phenylpropyl)phenyl]-3-(isopropylamino)-2-oxopyrazin-1 (2H)-yl]acetamide], the “PT (Prothrombin time) 2xPT” value in assay [1] was under 50.0 µM. Moreover, the IC50 was over 30 µM at Human thrombin, over 30 µM on Human factor Xa and under 0.1 µM in assay [2].
